# Results: patent US10899795B2, “Modified epitopes for boosting CD4+ T-cell responses” (Katholieke Universiteit Leuven, priority 2012, dated 2021)
# “Also recorded” adds a separate entry of the source.
# Columns and labels:
# [1] = test system: p21-35 (SEQ ID NO:3)-specific CD4+ T cell clone; test: Proliferation of Der p2 p21-35-specific CD4+ T cell clone with peptide-loaded antigen-presenting cells (3H-thymidine incorporation); format: cell-based, BALB/c mice; conditions: peptide 0.1 μM loaded on T cell-depleted mitomycin C-treated splenocytes; compared with p21-35 wildtype sequence (SEQ ID NO:3); 48 h + 18 h 3H-thymidine
# [2] = Direct binding ELISA of antibodies in blood of immunized BO2C11 BCR mice; format: in vivo; conditions: mice immunized with 50 μg peptide on alum on 4 occasions at 10-day intervals
# Excerpt: (§1) A mouse strain was created which expresses the BO2C11 molecule as a B cell receptor. […] Mice were then bled and tested for the presence of antibodies recognizing the peptide of SEQ ID NO:10 and the BO2C11 antibody, as assess by direct binding ELISA.
# BO2C11 antibody = test: as above; format: in vivo; conditions: mice immunized with 50 μg peptide on alum on 4 occasions at 10-day intervals
# Excerpt: as §1
# [3] = test system: B cells expressing the BO2C11 BCR; test: FACS for BO2C11 BCR on circulating, splenic and bone marrow B cells of immunized mice; format: in vivo
# Procedure: as §1, with “ELISA. […] Furthermore, the presence of the BO2C11 BCR on circulating, splenic and bone marrow B cells was evaluated by FACS using an anti-human Fc-gamma antibody.” for “ELISA.”
# CD4+ T cells = test: Proliferation of CD4+ T cells stimulated with ALK peptide-loaded dendritic cells (tritiated thymidine incorporation); format: cell-based, C57BL/6 mice; conditions: four cycles of stimulation with 20 μg peptide; restimulation with 1 μM or 10 μM peptide of SEQ ID NO:14; compared with stimulation by SEQ ID NO:14
# G121 CD4+ T cell clone = test: FACS detection of CFSE-labeled G121 CD4+ T cell clone in immunized mice; format: in vivo, BALB/c mice; conditions: one day after i.v. injection of 200,000 cells per mouse in immunized mice
# G121 TCR = test: FACS detection of serum antibodies to G121 TCR in immunized mice; format: in vivo, BALB/c mice; conditions: G121 cells incubated with serum dilution, then FITC-labeled anti-mouse Fcgamma antibody
# [4] = test system: macrophages presenting Ag85b derived epitopes; format: cell-based, C57BL/6 mice
# [5] = test system: NPM-ALK tumor cells (R80 NPM-ALK cells, H-2b-restricted); test: Growth of NPM-ALK tumor in mice preimmunized with peptide on alum; format: in vivo, C57BL/6 mice; conditions: 50 μg peptide on alum, 4 times at 10-day intervals, before s.c. inoculation of 2×10^6 tumor cells; difference at day 20 p<0.008 (Mann-Whitney U test)
# [6] = test system: ALK-specific CD4+ T cells; test: Activation of ALK-specific CD4+ T cells
substance,measurement,setting,value
"AHGSEPCIIHRGKPF (Der p2 amino acids 21-35 with mutation c21A) [SEQ ID NO:4, p21-35 peptide with cysteine in P(-4) substituted by alanine]",reduction of the proliferative response of the specific T cell clone,[1],70%
CAVY YCAVPDPDA FDI (CAVYYCAVPDPDAFDI; amino acids 111-125 of VH of human anti-factor VIII antibody BO2C11 preceded by cyteine) [SEQ ID NO:11],antibodies to the peptide of SEQ ID 10 (direct binding ELISA),[2],High concentrations of antibodies
same,antibodies to the BO2C11 antibody (direct binding ELISA),BO2C11 antibody,High concentrations of antibodies
same,"B cells expressing the transgenic BCR in circulation, spleen or bone marrow (FACS, anti-human Fc-gamma antibody)",[3],no B cells expressing the transgenic BCR
"CGG WTGPGAGPR (CGGWTGPGAGPR; amino acids 1544-1555 of ALK protein preceded by cysteine) [SEQ ID NO:15, ALK peptide with a single cysteine added at position 1544]",proliferation rate of CD4+ T cells (incorporation of tritiated thymidine),CD4+ T cells,significantly increased
CQTA VYFCASSER TGG (CQTAVYFCASSERTGG; amino acids 103-117 of VH of anti-Der p2 CD4+ T-cell clone G121 preceded by cysteine) [SEQ ID NO:13],residual CFSE-labeled G121 cells in peripheral blood or spleen (FACS),G121 CD4+ T cell clone,no residual G121 cells
same,antibodies to G121 TCR in serum of immunized mice (FACS),G121 TCR,contains antibodies to G121 TCR
CSWE YWGAQLNAM [SEQ ID NO:7],macrophage lysis (51Cr release),[4],significant degree of macrophage lysis
YCTQDPDVINTA (ALK-epitope) [SEQ ID NO:5],tumor growth in preimmunized mice versus control group not preimmunized,[5],very much reduced
same,activation of ALK-specific (class II-restricted) CD4+ T cells,[6],boost the activation; also recorded: increased activation properties
"YWGAQLNAM [SEQ ID NO:6, reference compound]",macrophage lysis (51Cr release),[4],not
